Assay results taken from patent US20250134870A1, “PATHWAY MODULATOR, PHARMACEUTICAL COMPOSITION HAVING SAME, USE THEREOF, AND THERAPEUTIC METHOD USING SAME” (Jiangsu Yahong Meditech Co., Ltd., priority 2021, published 2025).
Like-named read-outs stand apart in the source and are kept apart here.

Experiments:
[1] = tested on: 2,4-dinitrobenzenesulfonic acid (DNBS)-induced colitis; experiment: DNBS-induced enteritis/colitis in rats: body weight and stool score (Example 10); assay type: in vivo, Wistar rats; settings: positive control drug
Experimental: The 90 animals were randomly grouped on Day-1 (i.e., the day before the experiment) based on animal body weight to ensure that the body weight of each group of animals were similar, so as to reduce bias. Rats were fasted for 40 hours before the experiment and were injected subcutaneously with 5% glucose saline (10 mL/kg, once daily) during fasting. • Experimental grouping:
On Day 1 of the experiment, fasting rats were anesthetized by intraperitoneal injection with Zoletil (25 mg/kg Tiletamine and 25 mg/kg Zolazepam) and 5 mg/kg Xylazine.
In groups G2-G6, a hose was inserted from the anus to left colic flexure (about 8 cm from the anus) and colitis was induced by DNBS enema (0.5 mL/animal) in rats. The normal control group (G1) received 30% ethanol enema by the same process. The head of the animal after enema was lowered for 15 min, and then the animal was kept in Trendelenburg position until waked to avoid backflow of the enema fluid.
The percentage of body weight was calculated according to the following formula: (body weight on Day X-initial weight)/initial weight]×100%.
(2) Stool score: during the experiment, the stool state of rats was scored daily (0=normal, 1=wet/sticky, 2=loose, 3=liquid).

[2] = tested on: 2,4-dinitrobenzenesulfonic acid (DNBS)-induced colitis; experiment: DNBS-induced colitis in rats: macroscopic evaluation of colon on Day 7 (colon length, weight, ulcer area, CW/CL, CW/BW, CW/CL/BW); assay type: in vivo, Wistar rats; settings: for inhibition at 9 mg/kg: Rattus norvegicus, 168 h
Experimental: (3) Colon observation: after the end of the experiment, all animals were anesthetized with Zoletil (intravenous injection, 25 mg/kg) and the abdominal cavity was opened. Blood was collected from the abdominal aorta with EDTA anticoagulation (centrifugation conditions: 4° C., 2,000 g, 10 min). After the animals were sacrificed by bloodletting, the colon (from the cecum to the anus) was dissected and the colon length was measured immediately. The colon was longitudinally incised and rinsed until clean. Then the colon weight and ulcer area were recorded, and the colon was photographed as a whole and divided into three parts, among which two parts were stored at −80° C. after flash freezing with liquid nitrogen for MPO and cytokine detection, and the other part of colon was fixed with 10% neutral buffered formalin. If the ulcer was irregularly shaped, it could be considered as rectangular, and then its length and width were measured for ulcer area assessment. Ulcer area (cm^2)=ulcer length (cm)×ulcer width (cm).

[3] = tested on: 2,4-dinitrobenzenesulfonic acid (DNBS)-induced colitis; experiment: DNBS-induced colitis in rats: pathological score of colon tissue (H&E); assay type: in vivo, Wistar rats
Source text: The proximal, ulcer (corresponding sites can be taken, if there was no ulcer) and distal parts of the colon tissue fixed by neutral buffered formalin were embedded with paraffin, sectioned (thickness 5 μm), and histopathological score was given by H&E staining.

[4] = tested on: dextran sulfate sodium (DSS)-induced colitis; experiment: DSS-induced colitis in mice: body weight, DAI score, colon density (Examples 1, 3); assay type: in vivo, C57BL/6J mice; settings: for Colon density: experimental endpoint
Experimental: 8-10 week old female C57BL/6J mice purchased from Charles River Laboratories were used. The mice were housed in a room at constant temperature (20+2° C.) (5 mice per cage) with a 12-hour light-dark cycle. All protocols were approved by the Institutional Animal Care and Use Committee of WuXi AppTec. These mice were adapted to the housing conditions at the animal experiment center of WuXi AppTec for at least three days prior to the experiment. […] At the experimental endpoint (see hereinafter), mice were euthanized and endpoint samples were obtained. Mice in the normal group were not given 3% DSS aqueous solution to induce colitis and were free to drink blank water. […] The animal body weight and DAI score were assessed under double-blind conditions, that is, the researchers collected the body weight data of mice and observed and scored the stool characteristics and blood stools every day, without knowing the group and dosing regimen. The DAI score was the sum of the weight loss score, stool score and bleeding score. […] The data were analyzed by analysis of variance, specifically by using the following process: using Graph Pad Prism 6.0 software to carry out post-hoc Dunnett's multiple comparison test. […] Data were expressed as mean±S.E.M. The experimental endpoint was 24 hours after administration on Day 8 for the positive drug control group and the Test group 1 #to Test group 7 #of Example 1; the experimental endpoint of the normal group and the solvent group was the same as that of the positive drug control group and Test group 1 #to Test group 7 #.

[5] = tested on: mesenteric lymph node immune cell subpopulations; experiment: Flow cytometry of immune cell subpopulations and cytokines in mesenteric lymph nodes of DSS colitis mice (Examples 2, 4); assay type: in vivo, C57BL/6J mice; settings: 100 mg/kg PO QD × 8 days (Test group 7#) vs solvent group
Experimental: The experimental endpoint was 24 hours after administration on Day 8 for the positive drug control group and the Test group 1 #to Test group 7 #of Example 1; the experimental endpoint of the normal group and the solvent group was the same as that of the positive drug control group and Test group 1 #to Test group 7 #.
At the experimental endpoint, mesenteric lymphatic nodes were collected and treated as follows:
1) The mesenteric lymph nodes were gently grinded and filtered with a […] strainer (BD bioscience, Catalog No. 352350) to obtain a cell suspension, and the cells were counted.
2) The cells were suspended in a suspension solution (the suspension solution was prepared by the following process: diluting the cell activation mixture with a mixture of 90 v % 1640 medium and 10 v % fetal bovine serum to a concentration of 1×), the cell density was adjusted to 2.5×10^7/mL, and the cells were incubated at 37° C. for 5 hours. 3) The cells were washed with Dulbecco's Phosphate Buffered Saline, and stained with viable/dead stain (stain No. 12 in Table 5) at room temperature for 15 min to distinguish between viable cells and dead cells; the cells were washed with staining buffer (prepared by mixing fetal bovine serum and Dulbecco's Phosphate Buffered Saline at a volume ratio of 2:98), Fc block working solution (prepared by mixing Fc block and staining buffer at a volume ratio of 1:200) was added, and the cells were incubated at room temperature for 15 minutes.
4) The cells were surface labeled with 100 μL of antibody staining solution for flow cytometry without washing and incubated at 4° C. for 30 minutes.
5) The cells were washed once with staining buffer, 100 μL of cell fixative solution was added, and the cells were incubated at 4° C. overnight.
6) 200 μL of cell permeabilization solution was added and incubated at 4° C. for 30 minutes.
7) After washing with 250 μL of cell permeabilization solution, the cells were suspended with 100 μL of staining buffer and fluorescence was detected with a BD LSRFortessa instrument.
8) The cell subpopulations analyzed by flow cytometry included CD4+ T cell subpopulation, IL-17A+CD4+ T cell subpopulation, IFN-γ+CD4+ T cell subpopulation, TNF-α+CD4+ T cell subpopulation, CD25+FOXP3+ Treg cell subpopulation; CD8+ T cell subpopulation, IL-17A+CD8+ T cell subpopulation, IFN-γ+CD8+ T cell subpopulation, TNF-α+CD8+ T cell subpopulation; CD69+B220+ B cell subpopulation and NK1.1+CD107a+ NK cell subpopulation.

norepinephrine level = settings: cited from earlier work
[6] = 1200 mg; 10 consecutive days; NCT02151994; cited from earlier work
[7] = rats with spontaneous hypertension

For `C[C@]12C=CC(=O)C=C1CC[C@@H]1[C@@H]2C(=O)C[C@@]2(C)[C@H]1CC[C@]2(O)C(=O)CO` [Prednisone], the “stool form score AUC” value [1] was “significantly reduce”, the inhibition at 9 mg/kg ([2]; G3, 9 mg/kg PO QD × 7, read-out: IR1 (inhibition rate 1, CW/CL/BW)) was 44.2% and the inhibition at 9 mg/kg ([2]; G3, 9 mg/kg PO QD × 7, read-out: IR2 (inhibition rate 2, CW/BW)) was 50.1%. For the same compound, the inhibition at 9 mg/kg ([2]; G3, 9 mg/kg PO QD × 7, read-out: IR3 (inhibition rate 3, CW/CL)) was 46.5%, the BW ([2]; mean, G3, 9 mg/kg PO QD × 7) was 162.92 g and the “CW/BW ×100” value ([2]; mean, G3, 9 mg/kg PO QD × 7) was 0.99. The Ulcer area ([2]; mean, G3, 9 mg/kg PO QD × 7) was 1.26 cm^2, the Ulcer length ([2]; mean, G3, 9 mg/kg PO QD × 7) was 0.77 cm and the Ulcer width ([2]; mean, G3, 9 mg/kg PO QD × 7) was 0.85 cm. For the same compound, the colon weight ([2]; positive control drug) was “significantly reduce”, the “Pathological score, Distal end, Damage” value ([3]; mean, G3, 9 mg/kg PO QD × 7) was 1.33 and the “Pathological score, Distal end, Inflammation” value ([3]; mean, G3, 9 mg/kg PO QD × 7) was 2.00. For the same compound, the “Pathological score, Proximal end, Damage” value ([3]; mean, G3, 9 mg/kg PO QD × 7) was 0.80, the “Pathological score, Proximal end, Inflammation” value ([3]; mean, G3, 9 mg/kg PO QD × 7) was 1.73 and the “Pathological score, Total score, Damage” value ([3]; mean, G3, 9 mg/kg PO QD × 7) was 4.00. The “Pathological score, Total score, Inflammation” value ([3]; mean, G3, 9 mg/kg PO QD × 7) was 6.07, the “Pathological score, Ulcer end, Damage” value ([3]; mean, G3, 9 mg/kg PO QD × 7) was 1.87 and the “Pathological score, Ulcer end, Inflammation” value ([3]; mean, G3, 9 mg/kg PO QD × 7) was 2.33. The “inflammatory cell infiltration score of colon ulcer end” value ([3]; positive control drug) was “significantly reduce”.
In the case of `Fc1cc(F)c2c(c1)C[C@@H](n1c(CCNCc3ccccc3)c[nH]c1=S)CO2` [Zamicastat], the “Body weight on Day 7, g” value ([4]; 10 mg/kg PO QD × 8 days) is reported as 19.26 g, the “Body weight on Day 7/initial body weight, %” value ([4]; 10 mg/kg PO QD × 8 days) is reported as 91.68% and the “Body weight on Day 8, g” value ([4]; 10 mg/kg PO QD × 8 days) is reported as 18.37 g. For the same compound, the “Body weight on Day 8/initial body weight, %” value ([4]; 10 mg/kg PO QD × 8 days) was 87.45%, the “DAI score on Day 8” value ([4]; 10 mg/kg PO QD × 8 days) was 6.30 and the “Body weight on Day 7, g” value ([4]; 30 mg/kg PO QD × 8 days) was 18.96 g. The “Body weight on Day 7/initial body weight, %” value ([4]; 30 mg/kg PO QD × 8 days) was 91.04%, the “Body weight on Day 8, g” value ([4]; 30 mg/kg PO QD × 8 days) was 17.78 g and the “Body weight on Day 8/initial body weight, %” value ([4]; 30 mg/kg PO QD × 8 days) was 85.35%. For the same compound, the “DAI score on Day 8” value ([4]; 30 mg/kg PO QD × 8 days) was 6.30, the “Body weight on Day 7, g” value ([4]; 100 mg/kg PO QD × 8 days) was 19.66 g and the “Body weight on Day 8, g” value ([4]; 100 mg/kg PO QD × 8 days) was 18.75 g. For the same compound, the “Body weight on Day 8/initial body weight, %” value ([4]; 100 mg/kg PO QD × 8 days) was 89.17%, the “DAI score on Day 8” value ([4]; 100 mg/kg PO QD × 8 days) was 5.20 and the “severity of DSS-induced colitis and disease activity” value ([4]; Nepicastat 30, Etamicastat 100, Zamicastat 100 mg/kg PO QD × 8 days (Test groups 1#, 4#, 7#) vs solvent group) was “ameliorated the severity of DSS-induced colitis and reduced disease activity”. For the same compound, the “Colon density” value ([4]; 10 mg/kg PO QD × 8 days) was 35.04 mg/cm, the “Colon density” value ([4]; 30 mg/kg PO QD × 8 days) was 36.37 mg/cm and the “proportion of CD4+ T cell subpopulation” value [5] was “reduce the proportion”. The “proportion of CD25+FOXP3+ Treg cell subpopulation” value [5] was “increase the proportion”, the “secretion of IFN-γ by CD4+ T cell subpopulation” value [5] was “reduce the secretion” and the “secretion of IL-17A by CD4+ T cell subpopulation” value [5] was “reduce the secretion”. The “secretion of TNF-α by CD4+ T cell subpopulation” value [5] was “reduce the secretion”, the brain-blood-barrier penetration (norepinephrine level; compared with Nepicastat) was “lower levels of brain-blood-barrier penetration” and the “effect on brain tissue (norepinephrine level)” value (norepinephrine level; [7]) was “no effect on brain tissue”. The “norepinephrine level in peripheral sympathetic innervation tissues” value (norepinephrine level; [7]) was “reduce the norepinephrine level in peripheral sympathetic innervation tissues” and the safety [6] was “relatively good safety”.
